Assay results published in a melting point compilation (Tetko et al.).

| Structure (SMILES) | melting point [°C] |
| --- | --- |
| Cc1cccc(C2CC2C(=O)O)c1 (stereo unspecified) | 88 to 90 |
| O=C(O)C1CCCN(C(=O)c2ccccn2)C1 (stereo unspecified) | 167 to 169 |
| O=C(O)c1cccc(NS(=O)(=O)c2ccccc2)c1 | 199 to 201 |
| Clc1ncnc2c1oc1ccccc12 | 144 to 146 |
| ClCc1nn(-c2ccccc2)c2c1CCC2 | 83 to 85 |
| O=C(O)C1CC1c1ccc(Cl)cc1Cl (stereo unspecified) | 157 to 159 |
| Cc1nc(N)nc(C2CC2)n1 | 114 to 116 |
| COc1ccc(C=C[N+](=O)[O-])cc1Cl | 95 to 97 |
| Clc1cc(N2CCCC2)ncn1 | 93 to 95 |
| N#Cc1ccc(Cn2cncn2)c(F)c1 | 107 to 109 |
| Cc1cc(C(=O)CCl)c(F)cc1F | 80 to 82 |
| NC(=S)NC1CCOCC1 | 228 to 230 |
| N#Cc1ccc(N2CCCC(Br)C2=O)cc1 (stereo unspecified) | 124 to 126 |
| FC(F)(F)Cn1c(S)nnc1N1CCOCC1 | 175 to 177 |
| CC1CCCCN1S(=O)(=O)c1ccc(C(=O)O)cc1 (stereo unspecified) | 201 to 205 |
| CC(Cc1ccccc1)n1cccc1C(=O)O (stereo unspecified) | 78 to 80 |
| Cc1ccc(S(N)(=O)=O)c(C)c1 | 139 to 141 |
| O=c1[nH]nc(-c2cccs2)o1 | 116 to 118 |
| CC(C)(C)NC(=O)C1CCCCN1 (stereo unspecified) | 79 to 81 |
| Nc1cncc(Br)c1Cl | 96 to 98 |
| COc1cc(CCl)ccc1OCc1cccc(C#N)c1 | 95 to 97 |
| Cc1ccccc1-c1nnc(Cl)n1-c1ccccc1C | 200 to 202 |

| Structure (SMILES) | melting point [°C] |
| --- | --- |
| OC1CC2CCCC(C1)N2Cc1ccccc1 (stereo unspecified) | 57 to 59 |
| CC(NS(=O)(=O)Cc1ccccc1)C(=O)O (stereo unspecified) | 119 to 121 |
| O=[N+]([O-])c1ccc(Cl)cc1I | 62 to 64 |
| O=C(NCC(F)(F)F)c1ccc(Br)cc1 | 119 to 121 |
| O=c1[nH]c(CCl)nc2sc3c(c12)CCC3 | 230 to 238 |
| Nc1nc(-c2ccc(Cl)s2)ns1 | 151 to 153 |
| CN(c1ccccc1)S(=O)(=O)c1cccc(C(=O)O)c1 | 148 to 152 |
| CS(=O)(=O)c1cc(Br)ccc1N | 129 to 131 |
| CS(=O)(=O)CCCI | 59 to 61 |
| N#Cc1ccc2c(c1)CCO2 | 64 to 66 |
| Nn1c(S)nnc1-c1cccs1 | 216 to 220 |
| NC(=O)CNc1ccc(C(=O)O)cc1 | 249 to 251 |
| OCc1nc2cc(Br)ccc2[nH]1 | 179 to 181 |
| N#Cc1cc2c(nc1Cl)CCC2 | 126 to 128 |
| NCC1CCN(c2ccncc2)CC1 | 72 to 74 |
| N#Cc1ccnc(S)c1 | 227 to 229 |
| O=C(CCl)Nc1cccc(S(=O)(=O)N=C2CCCCCN2)c1 | 133 to 135 |
| O=Cc1cc(-c2cccs2)cs1 | 107 to 109 |
| Cc1cc(C)c(-c2cc(N)[nH]n2)cc1C | 145 to 147 |
| Cc1ccc2[nH]c(-c3ccc(Br)cc3)c(CCC(=O)O)c2c1 | 101 to 103 |
| O=C(O)c1sccc1S(=O)(=O)N1CCCCC1 | 111 to 113 |
| NS(=O)(=O)c1ccc(NCC(=O)O)cc1 | 239 to 241 |

| Structure (SMILES) | melting point [°C] |
| --- | --- |
| Cc1cc(=O)c(C(=O)O)nn1-c1ccccc1 | 167 to 169 |
| COc1cc(OC)c(N(C)S(=O)(=O)c2cccc(C(=O)O)c2)cc1Cl | 208 to 210 |
| Cc1nn(-c2ccccc2)c(N2CCCCC2)c1C=O | 75 to 77 |
| CC1C(=O)Nc2ccc(S(=O)(=O)Cl)cc21 (stereo unspecified) | 164 to 168 |
| O=C(O)c1cccc(OC2CCCC2)c1 | 79 to 81 |
| CCc1c(C(=O)O)[nH]c(C)c1C(C)=O | 202 to 204 |
| O=C(O)c1ccc(SC(F)F)cc1 | 154 to 156 |
| NC(CC(=O)NC1CCCC1)=NO | 119 to 121 |
| Nc1ccc(C(=O)Nc2ccc3cn[nH]c3c2)cc1 | 272 to 274 |
| O=C(O)C1CCN(c2ccc(F)cc2)C1=O (stereo unspecified) | 145 to 147 |
| NC1CCN(C2CCOCC2)C1=O (stereo unspecified) | 50 to 52 |
| Cc1occc1-c1nnc(S)n1-c1ccccc1 | 234 to 236 |
| O=C(O)c1ccc2noc(-c3ccccc3)c2c1 | 242 to 244 |
| Nc1nc2c(s1)CCCC2 | 30 to 32 |
| Cc1nc(-c2ccc(N)cc2)co1 | 112 to 114 |
| NC(=O)CNS(=O)(=O)c1cccc(C(=O)O)c1 | 259 to 261 |
| O=C(O)c1cc2cc(Br)ccc2[nH]1 | 283 to 285 |
| O=C(O)C1CNCc2ccccc21 (stereo unspecified) | 233 to 235 |
| N#CCc1cn(-c2ccccc2)nc1-c1ccc(Cl)cc1 | 126 to 128 |
| Cc1c[nH]c(=O)n1-c1ccccc1F | 211 to 213 |
| O=C1CC2(CCCCC2)C(=O)O1 | 54 to 58 |
| O=C(O)C1CC(=O)N(Cc2cccc(C(F)(F)F)c2)C1 (stereo unspecified) | 109 to 111 |

| Structure (SMILES) | melting point [°C] |
| --- | --- |
| Nc1cnn(-c2cccc(C(F)(F)F)c2)c1 | 82 to 84 |
| CSCc1nnc(S)o1 | 71 to 73 |
| O=C(CCl)Nc1cc2ccccc2cc1C(=O)O | 223 to 225 |
| O=C(O)CCc1ccoc1 | 63 to 65 |
| Nc1ccc(S(=O)(=O)Nc2ccccc2Cl)c(Cl)c1 | 239 to 241 |
| Fc1ccc(-c2nc(CCl)no2)cc1 | 51 to 55 |
| O=C(Nc1ccccc1Cl)c1c[nH]c2ccccc12 | 213 to 215 |
| Nc1ccc(NC(=O)c2ccccc2I)cc1 | 143 to 145 |
| O=C1C(Br)CCN1c1c(F)cccc1F (stereo unspecified) | 79 to 81 |
| C#CCN1CCC(NC2CCOCC2)CC1 | 74 to 76 |
| Cc1oc(C(N)=O)cc1C(=O)CCl | 197 to 199 |
| CC(C)N1C2CCC1CC(C(=O)O)C2 (stereo unspecified) | 223 to 225 |
| O=C(O)c1ccc(CS(=O)(=O)c2ccccc2)cc1 | 297 to 299 |
| Cc1cc(C)n(N)c(=O)c1C#N | 164 to 166 |
| c1ccc(CCc2nnn[nH]2)cc1 | 96 to 98 |
| Nc1cccnc1Oc1ccccc1 | 107 to 109 |
| CCN(CCC(N)=S)C(C)=O | 56 to 58 |
| O=S1(=O)CCC(I)CC1 | 124 to 126 |
| O=S(=O)(Nc1nc2ccccc2nc1Cl)c1cccc(Cl)c1 | 158 to 160 |

The next lines start with the values.

| melting point [°C] | Structure (SMILES) |
| --- | --- |
| 124 to 125 | CC(C)(C)NC(=O)c1ccccc1N |
| 180 to 182 | CN(C)C(=O)Sc1cnc2nc(C#N)c(C#N)n2c1 |
| 67 to 69 | CC(C)C(Oc1ccc(F)cc1F)C(=O)O (stereo unspecified) |
| 169 to 171 | CCOC(=O)C1=C(C)NC(=O)NC1CCl (stereo unspecified) |
| 46 to 48 | Cc1nn(C)cc1C=O |
| 59 to 63 | Cc1cncc(N)c1 |
| 199 to 201 | Cc1n[nH]cc1C(=O)NN |
| 179 to 181 | Cn1cc(C(=O)NN)cn1 |
| 207 to 209 | Cc1cc(NC(=O)c2ccc(F)cc2Cl)sc1C(=O)O |
| 154 to 156 | CC(C)NC(N)=O |
| 56 to 58 | Cc1ccc(CC(=O)O)o1 |
| 74 to 78 | COC(=O)c1c(C(=O)CCl)c(C)n(C2CC2)c1C |
| 49 to 51 | CCOC(=O)c1n[nH]c(C(O)c2ccccc2)n1 (stereo unspecified) |
| 139 to 141 | COCC(C)n1c(SCC(=O)O)nnc1-c1ccccc1 (stereo unspecified) |
| 180 to 182 | Cc1ccc2oc(C(=O)O)c(C)c2c1 |
| 234 to 236 | CC(C)c1ccc(C(N)CC(=O)O)cc1 (stereo unspecified) |
| 71 to 73 | Cc1ccc(C(=O)c2cccnc2)cc1 |
| 187 to 189 | COc1ccc(NC(=O)c2ccc(N)cc2)cc1 |
| 137 to 139 | CCOC(=O)c1cnc2ccc(Cl)cn2c1=O |
| 85 to 87 | CCOC(=O)C(O)c1ncc(Cl)n1C (stereo unspecified) |
| 84 to 86 | Cc1ccccc1C(=O)CC#N |

| melting point [°C] | Structure (SMILES) |
| --- | --- |
| 53 to 55 | CCOC(=O)CSc1nnc(-c2cccs2)o1 |
| 55 to 57 | Clc1cnc(Cl)nc1 |
| 115 to 117 | CNc1ncc(C(=O)OC)s1 |
| 229 to 231 | Cc1sc(-c2ccco2)nc1C(=O)O |
| 104 to 106 | COC(=O)CNc1ncccc1[N+](=O)[O-] |
| 74 to 76 | COc1ccc(F)cc1C(=O)CBr |
| 106 to 108 | COC(=O)C1CCN(c2nc3ccccc3o2)CC1 |
| 158 to 160 | CC(C)Cn1cnc2c1c(=O)[nH]c(=O)n2CC(C)C |
| 131 to 133 | O=C(Nc1cnccn1)C1CCNCC1 |
| 41 to 43 | CC(C)Nc1ccccn1 |
| 72 to 74 | COC(=O)c1cc([N+](=O)[O-])cc(C)c1C |
| 64 to 66 | CN(C)c1ccc(C#N)cn1 |
| 148 to 150 | CC(C)n1cc(Br)cc1C(=O)O |
| 268 to 270 | CNC(C)C(=O)O (stereo unspecified) |
| 102 to 104 | COC(=O)C(C)NC(=O)c1ccc(Cl)c([N+](=O)[O-])c1 (stereo unspecified) |
| 104 to 106 | COC(=O)c1oc2ccccc2c1CBr |
| 271 to 273 | Cc1nc(O)nc(C)c1CC(=O)O |
| 53 to 55 | COc1cccc(OC)c1CO |
| 107 to 109 | O=Cc1cnc(-c2ccsc2)s1 |
| 58 to 60 | COc1ccc(CCC(=O)CC#N)cc1 |
| 224 to 226 | COc1cc2nc(N)sc2cc1OC |

| melting point [°C] | Structure (SMILES) |
| --- | --- |
| 139 to 141 | CCc1nn(C)c(Cl)c1C(=O)O |
| 107 to 109 | Cn1ccnc1-c1ccc([N+](=O)[O-])cc1 |
| 122 to 124 | C=CC(=O)Nc1cccc(Br)c1 |
| 121 to 123 | Cn1ccnc1Sc1ccccc1N |
| 100 to 102 | Cc1cccc(Cc2cnc(N)s2)c1 |
| 174 to 176 | Cc1ccc2nc(C)c(C(=O)O)cc2c1 |
| 87 to 89 | O=C(O)c1ccccc1OCc1cccs1 |
| 243 to 245 | Cn1nc(C(C)(C)C)c2cc(C(=O)O)cnc21 |
| 179 to 181 | CC(C)(C)OC(=O)Nc1ccc(C(=O)O)cc1O |
| 99 to 101 | CCOC(=O)c1c(N)c(C#N)cn1CCOC |
| 172 to 174 | COc1ccc(S(=O)(=O)Nc2nccs2)cc1 |
| 121 to 123 | CCOC(=O)COc1ccc(O)cc1 |
| 245 to 247 | O=C(O)c1cnc(S)n1-c1ccccc1 |
| 198 to 200 | Nc1ncc(-c2ccccc2)s1 |
| 171 to 173 | COc1ccc(S(=O)(=O)NC(CCC(N)=O)C(=O)O)cc1 (stereo unspecified) |
| 93 to 95 | CC(=O)c1cccc(OC(C)C(=O)O)c1 (stereo unspecified) |
| 125 to 127 | COc1cccc(C2(C(=O)O)CCCC2)c1 |
| 159 to 161 | COc1ccc(Cl)c(NC(=O)NN)c1 |
| 305 to 307 | CC(=O)Nc1ccc(NC(=O)CC#N)cc1 |
